Consider two molecules from patent publication US20250064803A1, “DOSAGE REGIMENS FOR PARP7 INHIBITORS” (Ribon Therapeutics, Inc., priority 2021, published 2025).

Data set [1] is described as follows: Relative bioavailability PK of micronized vs nonmicronized 100 mg tablets in Phase 1 patients. Format: in vivo, human. As for the experimental part: Assessments conducted after C1D1 will be the same as described for patients in the dose escalation cohorts following Schedule 2. Based on emerging PK data, additional Relative Bioavailability Cohorts at additional dose levels may be explored.
Patients enrolled in the Relative Bioavailability Cohort(s) will have an additional visit 7 days (±3 days) prior to C1D1. […] On C1D-7 patients will be attached to a Holter monitor that will run continuously for ˜24 hours (i.e., until patients return on the following day for the 24-hr PK sample collection on C1D-6). […] On C1D1, patients will be attached to a Holter monitor that will run continuously for ˜24 hours (i.e., immediately before the study drug dose on C1D2). […] Samples collected after C1D2 are not considered part of the relative Bioavailability data set.
Plasma samples were collected at 0.5, 1, 2, 4, 6, 8, 12 and 24 hours post dose. […] Plasma samples were collected at 0.5, 1, 2, 4, 6, 8, 12 and 24 hours post dose.

Data set [2] can be described thus: Plasma pharmacokinetics after oral tablets and capsules in male Beagle dogs. The data set is classed as in vivo. To be noted: for AUC / Cmax: male, Beagle, dog, plasma, po, 100 mg. An excerpt: The objective of this study was to determine the plasma pharmacokinetic profiles of the compound of Formula I in male Beagle dogs after oral administration and to assess the exposure of tablets and capsules formulations.
Male Beagle dogs were purchased from Jiangsu Johnsen Bioresource CO., Ltd. The animals were 1-2.5 years old on the dosing day. All animals were housed in a 12-hour light/12-hour dark cycle environment. Animals for oral (PO) groups were fasted overnight prior to dosing and were fed approximately 2 hours after dosing. This study was approved by the Pharmaron Institutional Animal Care and Use Committee.
The compound of Formula I was used for the dose formulation and standard stock solution preparation. […] For the animals in PO groups, pentagastrin ([…], i.m.) was administrated 20 minutes before dosing PO formulation and 1.5 hours after the first pentagastrin dosing. The dosing volume was 0.024 mL/kg, the concentration was […] in DMSO/1 N NaOH/PBS. The dosing volume, detailed dosing time of pentagastrin was recorded. 10 mL of 0.001 N HCl was used to wash the gavage catheter for each animal.
Blood samples (0.5 mL) were collected from each animal via jugular veins. These blood samples were placed into tubes containing dipotassium ethylenediaminetetraacetic acid and then centrifuged at 2000 g for 10 minutes at 4° C. to produce plasma. All samples were stored at −75±15° C. until analysis.
Compound of Formula I was prepared in dimethyl sulfoxide with vortex at 1 mg/mL (free form) as standard stock solution. Calibration standard working solutions were prepared at concentrations of 5, 10, 20, 50, 100, 500, 1000, 5000, 10000 and 20000 ng/mL by serial dilution of the standard stock solution by 50% acetonitrile in water. […] These QC samples were prepared on the day of analysis in the same way as calibration standards.
5 μL of each calibration standard working solution (5, 10, 20, 50, 100, 500, 1000, 5000, 10000 and 20000 ng/mL) was added to 50 μL of blank Beagle Dog plasma to achieve calibration standards of 0.5-2000 ng/mL (0.5, 1, 2, 5, 10, 50, 100, 500, 1000, 2000 ng/mL) in a total volume of 55 μL. […] These QC samples were prepared on the day of analysis in the same way as calibration standards. 55 μL of standards, 55 μL of QC samples or 55 μL of unknown samples (50 μL of plasma sample with 5 μL 50% acetonitrile in water) were mixed with 200 μL of acetonitrile containing IS (internal standard, dexamethasone) to precipitate proteins. Then the samples were vortexed for 30 sec.
Data Acquisition was Performed by Sciex Analyst 1.6.3 Software (AB Sciex, Forster City, CA). Pharmacokinetic parameters were calculated by non-compartmental analysis (Phoenix TM WinNonlin® 6.1). The linear trapezoidal algorithm was used for AUC calculation.

A short description of data set [3]: First-in-human Phase 1 dose escalation study: treatment-related adverse events, safety. The data set is classed as in vivo. The text has this: This protocol is a first-in-human, Phase 1, multi-center, open-label, study designed to evaluate the safety profile, including any dose-limiting toxicities (DLTs), and (maximum tolerated dose) MTD of the compound of Formula I administered as a single agent PO and establish the recommended phase 2 dose (RP2D) of the compound of Formula I. The study has a Dose Escalation Phase, which includes a relative bioavailability assessment, followed by a Dose Expansion Phase in patients with selected tumor types.
In the Dose Escalation Phase of the study, patients with any histologically- or cytologically-confirmed solid tumor type (which may include “solid” lymphoma [e.g., mantle cell]) that is refractory to standard therapy and for whom no therapy exists that would be curative or might provide clinical benefit and therefore for whom experimental therapy is a reasonable option are eligible. In the Dose Expansion Phase of the study, the RP2D will be investigated in the following cancer types: squamous cell carcinoma of the lung (SCCL), head and neck squamous cell carcinoma (HNSCC), hormone receptor positive (HR+) breast cancer, and PARP7 amplified cancer.
Two schedules are employed in the Dose Escalation Phase: • Schedule 1 will examine a 21-day cycle with 14 days of the compound of Formula I administered at doses of 25 mg, 50 mg, 100 mg, 200 mg, 300 mg, and 500 mg BID followed by a rest period. • Schedule 2 will examine a 21-day continuous dosing cycle at doses of 100 mg, 200 mg, 300 mg, and 400 mg BID.
The most frequent compound of Formula I treatment-related AEs in the ongoing Phase 1 escalation study are dysgeusia or taste disorder (36%), decreased appetite (15%), fatigue (14%), nausea (12%), and anemia, constipation, diarrhea and decreased weight (10%) each.
Overall, the safety profile of the compound of Formula I is considered manageable at the RP2D for combination with pembrolizumab.

The nature of data set [4]: Particle size by laser diffraction (USP 42 <429>, Malvern Mastersizer 3000). The data set is classed as physicochemical. An excerpt: The compound of Formula I can be prepared in micronized and nonmicronized forms. In some embodiments, the compound of Formula I used in the dosage forms of the invention is micronized. The micronized drug substance can be prepared, for example, by jet milling. Particle size can be measured by laser diffraction methods (e.g., USP 42 <429> Light Diffraction Measurement of Particle Size). Nonmicronized compound can have a particle diameter size [d90] of about 30 μm or larger. In some embodiments, nonmicronized compound has a particle diameter size [d90] of about 30 to about 500 μm, about 50 to about 400 μm, about 100 to about 350 μm, or about 150 to about 300 μm.
Micronized batches of the compound of Formula I were prepared by jet milling using a nitrogen gas feed. The nonmicronized starting material was prepared in a manner similar to the process for preparing crystalline compound of Formula I described in U.S. Pat. No. 10,550,105. Particle size was measured by laser diffraction according to USP 42 <429> using a Malvern Mastersizer 3000 equipped with a Hydro MV wet dispersion sample unit. Particle size diameters [d90] for two different lots were measured as 10.851 and 8.715 μm, respectively.

The conditions of data set [5]: cited from earlier work.
The mark [6] stands for this setting: 100 mg capsule, micronized vs nonmicronized.
[7] abbreviates: particle size d90:d50 18:5 μm (micronized).
The mark [8] stands for this setting: particle size d90:d50 228:108 μm (nonmicronized).
Where [9] appears, read: patients, ongoing Phase 1 escalation study.
Setting [10] is: NSCLC patients, second or third line, Keynote-010 (n=682).

“And” between values parts separate entries of the source, which are not always exact repeats. Equal values may be shown once. “Also recorded” adds a separate entry of the source.

Take `C[C@@H](COCCC(=O)N1CCN(c2ncc(C(F)(F)F)cn2)CC1)Nc1cn[nH]c(=O)c1C(F)(F)F` [compound of Formula I, 5-[[(2S)-1-(3-oxo-3-[4-[5-(trifluoromethyl)pyrimidin-2-yl]piperazin-1-yl]propoxy)propan-2-yl]amino]-4-(trifluoromethyl)-2,3-dihydropyridazin-3-one]: in data set [1], the “increase in mean AUC, micronized vs nonmicronized tablet” value is “about 1.5 fold” and the “increase in mean Cmax, micronized vs nonmicronized tablet” value is recorded as “about 2.4 fold”. In addition, in data set [2] (setting [6]), the “increase in AUC by micronization” value worked out at 2.8 fold and the “increase in Cmax by micronization” value turned out to be 4.7 fold. Moreover, the “exposure, micronized capsules (Group E) versus nonmicronized capsules (Group D)” value in data set [2] (100 mg/dog PO) is on record as “much higher”. Further, in data set [2] (Groups A, B and C, tablets 25, 50, 100 mg/dog), the “oral exposure versus dose level” value was “increased with the dose level, though not linear”. Also, in data set [2] (setting [7]), the AUC (as a rule, the area under the concentration-time curve, a measure of exposure) was 9560 ng·h/mL and the Cmax – broadly, the maximum level reached in the sampled fluid or tissue – is 1670 ng/mL. In data set [2] (setting [8]), this molecule gave an AUC of 3400 ng·h/mL and a Cmax of 356 ng/mL. Further, the “safety profile / tolerability” value in data set [3] (50 patients, first-in-human Phase 1 trial) was “favorable safety profile; also recorded: well tolerated”. Moreover, in data set [3] (setting [9]), the “treatment-related AE: anemia” value was 10%, the “treatment-related AE: constipation” value was found to be 10%, the “treatment-related AE: decreased appetite” value is 15% and the “treatment-related AE: decreased weight” value is listed as 10%. Further, in data set [3] (setting [9]), the “treatment-related AE: diarrhea” value is 10%, the “treatment-related AE: dysgeusia or taste disorder” value turned out to be 36%, the “treatment-related AE: fatigue” value is 14% and the “treatment-related AE: nausea” value is 12%. In addition, in data set [4] (micronized compound (jet milled)), the “particle diameter size d[90]” value was 10.851 μm and 8.715 μm. Moreover, the “particle diameter size d[90]” value in data set [4] (nonmicronized compound) turned out to be 228.474 μm.
Consider “pembrolizumab: humanized antibody that binds to human PD-1, approved by the U.S. FDA”, for which, in data set [5] (setting [10]), the “adverse reactions leading to discontinuation” value is 8% and the “pneumonitis leading to discontinuation (most common)” value is recorded as 1.8%. Moreover, the “most frequent treatment-related AEs (fatigue, musculoskeletal pain, decreased appetite, pruritus, diarrhea, nausea, rash, pyrexia, cough, dyspnea, constipation, pain, abdominal pain), reported in” value in data set [5] (single agent (Merck 2021)) is greater than 20%.
